# Values of other authors in PubChem BioAssay AID1259409 (Chemical Carcinogenesis Research Information System (CCRIS), 2018).
# Where “and” joins values, the source holds several entries; their conditions need not be identical. Equal values may be shown once.
# Tested on: rodent chemically induced tumor inhibition, incidence and multiplicity
# Experiment: CCRIS tumor inhibitor studies
# Settings: Species: RAT
smiles,measurement,setting,value
COc1ccc2c(c1)c(CC(=O)O)c(C)n2C(=O)c1ccc(Cl)cc1,"tumour outcome (control, treated, inhibition, significance)","Carcinogen: DIETHYLNITROSAMINE, 55-18-5, N-METHYL-N-NITROSOUREA, 684-93-5, N-BUTYL-N-(4-HYDROXYBUTYL)NITROSAMINE, 3817-11-6, 1,2-DIM, Carcinogen: DIETHYLNITROSAMINE, 55-18-5, N-METHYL-N-NITROSOUREA, 684-93-5, N-BUTYL-N-(4-HYDROXYBUTYL)NITROSAMINE, 3817-11-6, 1,2-DIM, Dose [Inhibitor]: 0, 20 PPM IN DRINKING WATER FOR 23 WK BEGINNING 1 WK POST CARCINOGEN TREATMENT (STUDY DURATION: 28 WK), Route [Inhibitor]: ORAL, Strain/Sex: F344/MALE, Target Tissue: Type of Lesion: LARGE INTESTINE: ADENOCARCINOMA, Dose [Carcinogen]: 100 MG/KG BW DEN ONCE, 20 MG/KG BW MNU ONCE ON DAYS 6,9, AND 12, 0.05% BBN IN DRINKING WATER FOR FIRST TWO WK, 40 MG/KG, Dose [Carcinogen]: 100 MG/KG BW DEN ONCE, 20 MG/KG BW MNU ONCE ON DAYS 6,9, AND 12, 0.05% BBN IN DRINKING WATER FOR FIRST TWO WK, 40 MG/KG, Promoter: NONE USED","2/20 (10%), 0/19 (0%), 100%, not significant"
same,"tumour outcome (control, treated, inhibition, significance)","Carcinogen: DIETHYLNITROSAMINE, 55-18-5, N-METHYL-N-NITROSOUREA, 684-93-5, N-BUTYL-N-(4-HYDROXYBUTYL)NITROSAMINE, 3817-11-6, 1,2-DIM, Carcinogen: DIETHYLNITROSAMINE, 55-18-5, N-METHYL-N-NITROSOUREA, 684-93-5, N-BUTYL-N-(4-HYDROXYBUTYL)NITROSAMINE, 3817-11-6, 1,2-DIM, Dose [Inhibitor]: 0, 20 PPM IN DRINKING WATER FOR 23 WK BEGINNING 1 WK POST CARCINOGEN TREATMENT (STUDY DURATION: 28 WK), Route [Inhibitor]: ORAL, Strain/Sex: F344/MALE, Target Tissue: Type of Lesion: LARGE INTESTINE: ADENOMA, Dose [Carcinogen]: 100 MG/KG BW DEN ONCE, 20 MG/KG BW MNU ONCE ON DAYS 6,9, AND 12, 0.05% BBN IN DRINKING WATER FOR FIRST TWO WK, 40 MG/KG, Dose [Carcinogen]: 100 MG/KG BW DEN ONCE, 20 MG/KG BW MNU ONCE ON DAYS 6,9, AND 12, 0.05% BBN IN DRINKING WATER FOR FIRST TWO WK, 40 MG/KG, Promoter: NONE USED","3/20 (15%), 0/19 (0%), 100%, not significant"
same,"tumour outcome (control, treated, inhibition, significance)","Carcinogen: DIETHYLNITROSAMINE, 55-18-5, N-METHYL-N-NITROSOUREA, 684-93-5, N-BUTYL-N-(4-HYDROXYBUTYL)NITROSAMINE, 3817-11-6, 1,2-DIM, Carcinogen: DIETHYLNITROSAMINE, 55-18-5, N-METHYL-N-NITROSOUREA, 684-93-5, N-BUTYL-N-(4-HYDROXYBUTYL)NITROSAMINE, 3817-11-6, 1,2-DIM, Dose [Inhibitor]: 0, 20 PPM IN DRINKING WATER FOR 23 WK BEGINNING 1 WK POST CARCINOGEN TREATMENT (STUDY DURATION: 28 WK), Route [Inhibitor]: ORAL, Strain/Sex: F344/MALE, Target Tissue: Type of Lesion: LIVER: HEPATOCELLULAR ADENOMA, HYPERPLASTIC NODULE, Dose [Carcinogen]: 100 MG/KG BW DEN ONCE, 20 MG/KG BW MNU ONCE ON DAYS 6,9, AND 12, 0.05% BBN IN DRINKING WATER FOR FIRST TWO WK, 40 MG/KG, Dose [Carcinogen]: 100 MG/KG BW DEN ONCE, 20 MG/KG BW MNU ONCE ON DAYS 6,9, AND 12, 0.05% BBN IN DRINKING WATER FOR FIRST TWO WK, 40 MG/KG, Promoter: NONE USED","2/20 (10%), 7/19 (37%), -270%, not significant"
same,outcome,"Carcinogen: DIETHYLNITROSAMINE, 55-18-5, N-METHYL-N-NITROSOUREA, 684-93-5, N-BUTYL-N-(4-HYDROXYBUTYL)NITROSAMINE, 3817-11-6, 1,2-DIM, Carcinogen: DIETHYLNITROSAMINE, 55-18-5, N-METHYL-N-NITROSOUREA, 684-93-5, N-BUTYL-N-(4-HYDROXYBUTYL)NITROSAMINE, 3817-11-6, 1,2-DIM, Dose [Inhibitor]: 0, 20 PPM IN DRINKING WATER FOR 23 WK BEGINNING 1 WK POST CARCINOGEN TREATMENT (STUDY DURATION: 28 WK), Route [Inhibitor]: ORAL, Strain/Sex: F344/MALE, Target Tissue: Type of Lesion: LIVER: HEPATOCELLULAR ADENOMA, Dose [Carcinogen]: 100 MG/KG BW DEN ONCE, 20 MG/KG BW MNU ONCE ON DAYS 6,9, AND 12, 0.05% BBN IN DRINKING WATER FOR FIRST TWO WK, 40 MG/KG, Dose [Carcinogen]: 100 MG/KG BW DEN ONCE, 20 MG/KG BW MNU ONCE ON DAYS 6,9, AND 12, 0.05% BBN IN DRINKING WATER FOR FIRST TWO WK, 40 MG/KG, Promoter: NONE","0/20 (0%), 0/19 (0%), 0%, not significant"
same,"tumour outcome (control, treated, inhibition, significance)","Carcinogen: DIETHYLNITROSAMINE, 55-18-5, N-METHYL-N-NITROSOUREA, 684-93-5, N-BUTYL-N-(4-HYDROXYBUTYL)NITROSAMINE, 3817-11-6, 1,2-DIM, Carcinogen: DIETHYLNITROSAMINE, 55-18-5, N-METHYL-N-NITROSOUREA, 684-93-5, N-BUTYL-N-(4-HYDROXYBUTYL)NITROSAMINE, 3817-11-6, 1,2-DIM, Dose [Inhibitor]: 0, 20 PPM IN DRINKING WATER FOR 23 WK BEGINNING 1 WK POST CARCINOGEN TREATMENT (STUDY DURATION: 28 WK), Route [Inhibitor]: ORAL, Strain/Sex: F344/MALE, Target Tissue: Type of Lesion: LUNG: ADENOCARCINOMA, Dose [Carcinogen]: 100 MG/KG BW DEN ONCE, 20 MG/KG BW MNU ONCE ON DAYS 6,9, AND 12, 0.05% BBN IN DRINKING WATER FOR FIRST TWO WK, 40 MG/KG, Dose [Carcinogen]: 100 MG/KG BW DEN ONCE, 20 MG/KG BW MNU ONCE ON DAYS 6,9, AND 12, 0.05% BBN IN DRINKING WATER FOR FIRST TWO WK, 40 MG/KG, Promoter: NONE UESD","1/20 (5%), 0/19 (0%), 100%, not significant"
same,"tumour outcome (control, treated, inhibition, significance)","Carcinogen: DIETHYLNITROSAMINE, 55-18-5, N-METHYL-N-NITROSOUREA, 684-93-5, N-BUTYL-N-(4-HYDROXYBUTYL)NITROSAMINE, 3817-11-6, 1,2-DIM, Carcinogen: DIETHYLNITROSAMINE, 55-18-5, N-METHYL-N-NITROSOUREA, 684-93-5, N-BUTYL-N-(4-HYDROXYBUTYL)NITROSAMINE, 3817-11-6, 1,2-DIM, Dose [Inhibitor]: 0, 20 PPM IN DRINKING WATER FOR 23 WK BEGINNING 1 WK POST CARCINOGEN TREATMENT (STUDY DURATION: 28 WK), Route [Inhibitor]: ORAL, Strain/Sex: F344/MALE, Target Tissue: Type of Lesion: LUNG: ADENOMA, Dose [Carcinogen]: 100 MG/KG BW DEN ONCE, 20 MG/KG BW MNU ONCE ON DAYS 6,9, AND 12, 0.05% BBN IN DRINKING WATER FOR FIRST TWO WK, 40 MG/KG, Dose [Carcinogen]: 100 MG/KG BW DEN ONCE, 20 MG/KG BW MNU ONCE ON DAYS 6,9, AND 12, 0.05% BBN IN DRINKING WATER FOR FIRST TWO WK, 40 MG/KG, Promoter: NONE USED","8/20 (40%), 2/19 (11%), 73%, p<0.05"
same,"tumour outcome (control, treated, inhibition, significance)","Carcinogen: DIETHYLNITROSAMINE, 55-18-5, N-METHYL-N-NITROSOUREA, 684-93-5, N-BUTYL-N-(4-HYDROXYBUTYL)NITROSAMINE, 3817-11-6, 1,2-DIM, Carcinogen: DIETHYLNITROSAMINE, 55-18-5, N-METHYL-N-NITROSOUREA, 684-93-5, N-BUTYL-N-(4-HYDROXYBUTYL)NITROSAMINE, 3817-11-6, 1,2-DIM, Dose [Inhibitor]: 0, 20 PPM IN DRINKING WATER FOR 23 WK BEGINNING 1 WK POST CARCINOGEN TREATMENT (STUDY DURATION: 28 WK), Route [Inhibitor]: ORAL, Strain/Sex: F344/MALE, Target Tissue: Type of Lesion: THYROID: FOLLICULAR ADENOMA, Dose [Carcinogen]: 100 MG/KG BW DEN ONCE, 20 MG/KG BW MNU ONCE ON DAYS 6,9, AND 12, 0.05% BBN IN DRINKING WATER FOR FIRST TWO WK, 40 MG/KG, Dose [Carcinogen]: 100 MG/KG BW DEN ONCE, 20 MG/KG BW MNU ONCE ON DAYS 6,9, AND 12, 0.05% BBN IN DRINKING WATER FOR FIRST TWO WK, 40 MG/KG, Promoter: NONE USED","6/20 (30%), 2/19 (11%), 63%, not significant and 1/20 (5%), 1/19 (5%), 0%, not significant"
same,"tumour outcome (control, treated, inhibition, significance)","Carcinogen: DIETHYLNITROSAMINE, 55-18-5, N-METHYL-N-NITROSOUREA;684-93-5, N-BUTYL-N-(4-HYDROXYBUTYL)NITROSAMINE, 3817-11-6, 1,2-DIME, Carcinogen: DIETHYLNITROSAMINE, 55-18-5, N-METHYL-N-NITROSOUREA;684-93-5, N-BUTYL-N-(4-HYDROXYBUTYL)NITROSAMINE, 3817-11-6, 1,2-DIME, Dose [Inhibitor]: 0, 20 PPM IN DRINKING WATER FOR 23 WK BEGINNING 1 WK POST CARCINOGEN TREATMENT (STUDY DURATION: 28 WK), Route [Inhibitor]: ORAL, Strain/Sex: F344/MALE, Target Tissue: Type of Lesion: SMALL INTESTINE: ADENOMA, Dose [Carcinogen]: 100 MG/KG BW DEN ONCE, 20 MG/KG BW MNU ONCE ON DAYS 6,9, AND 12, 0.05% BBN IN DRINKING WATER FOR FIRST TWO WK, 40 MG/KG, Dose [Carcinogen]: 100 MG/KG BW DEN ONCE, 20 MG/KG BW MNU ONCE ON DAYS 6,9, AND 12, 0.05% BBN IN DRINKING WATER FOR FIRST TWO WK, 40 MG/KG, Promoter: NONE USED","5/20 (25%), 0/19 (0%), 100%, p<0.05"
same,"tumour outcome (control, treated, inhibition, significance)","Carcinogen: DIETHYLNITROSAMINE, 55-18-5, N-METHYL-N-NITROSOUREA, 684-93-5, N-METHYL-N-(4-HYDROXYBUTYL)NITROSAMINE, 3817-11-6, 1,2-DI, Carcinogen: DIETHYLNITROSAMINE, 55-18-5, N-METHYL-N-NITROSOUREA, 684-93-5, N-METHYL-N-(4-HYDROXYBUTYL)NITROSAMINE, 3817-11-6, 1,2-DI, Dose [Inhibitor]: 0, 20 PPM IN DRINKING WATER FOR 23 WK BEGINNING 1 WK POST CARCINOGEN TREATMENT (STUDY DURATION: 28 WK), Route [Inhibitor]: ORAL, Strain/Sex: F344/MALE, Target Tissue: Type of Lesion: SMALL INTESTINE: ADENOCARCINOMA, Dose [Carcinogen]: 100 MG/KG BW DEN ONCE, 20 MG/KG BW MNU ONCE ON DAYS 6,9, AND 12, 0.05% BBN IN DRINKING WATER FOR FIRST TWO WK, 40 MG/KG, Dose [Carcinogen]: 100 MG/KG BW DEN ONCE, 20 MG/KG BW MNU ONCE ON DAYS 6,9, AND 12, 0.05% BBN IN DRINKING WATER FOR FIRST TWO WK, 40 MG/KG, Promoter: NONE USED","2/20 (10%), 0/19 (0%), 100%, not significant"
same,"tumour outcome (control, treated, inhibition, significance)","Carcinogen: METHYLAZOXYMETHANOL, 590-96-5, Dose [Inhibitor]: 7.5 MG/KG BW DAILY FOR 3 WK STARTING 27 WK AFTER THE START OF CARCINOGEN TREATMENT (STUDY DURATION: 30 WK), Route [Inhibitor]: INTRARECTAL, Strain/Sex: DONRYU/MALE, Target Tissue: Type of Lesion: LARGE INTESTINE: ADENOCARCINOMA, Dose [Carcinogen]: 20 MG/KG BW 1/WK FOR 6 WK, Promoter: NONE USED","19/23 (83%), 15/30 (50%), 40%, p<0.05"
